Measurements taken from patent publication US20060002994A1, “Responsive liposomes for ultrasonic drug delivery” (priority 2004, published 2006).
Read-outs that look alike come from different tables or passages of the source.

What was measured:
[1] = Critical micelle concentrations (CMC) of detergents; format: physicochemical; settings: source not stated
Description: RESULTS: Some ethylene glycol-containing surfactants can cause enhanced release of a self-quenching fluorescent marker dye from liposomes under 20 kHz ultrasound stimulation.[19] In FIG. 4, the rate of fluorescence increase caused by release of liposomally-entrapped calcein dye is shown in liposomes treated with five different surfactants. The total surfactant concentrations were normalized to the CMCs (Table 1, below). CMCs for TRITON® X-100, TRITON® X-405, PLURONIC® P-105 [20] and TWEEN® 80 were obtained from the literature. All surfactants, except DPPE-PEG2000, were dissolved in the buffer prior to the introduction of the liposomes. DPPE-PEG2000 was incorporated into the liposomes prior to extrusion. For all surfactants except TRITON® X-100, the rate of fluorescence increase in the absence of ultrasound was <0.04% per second, i.e., off the bottom of the figure. (At the higher TRITON® X-100 concentrations, the spontaneous leakage was >0.11% per second.) All of the surfactants induced about a 10-15 fold increase in the response to 20 kHz ultrasound. More remarkably, the surfactants reached maximal effectiveness at concentrations of about 1% of the critical micelle concentration. […] Furthermore, the different surfactants plateau at different levels. […]

[2] = Estimated partition coefficients (K) of detergents into the lipid membrane; format: physicochemical; settings: estimated as inverse of CMC; P-105 at 37° C.
Description: Critical micelle concentrations (CMC) and estimated partition coefficients (K) of several detergents assayed. For membrane-solubilizing detergents, the product of the CMC and the partition coefficient is of order unity.

[3] = obtained from the literature; P-105 at 37° C.; cited from earlier work

Substance: 1,2-dipalmitoyl-sn-glycero-3-phosphoethanolamine-N-methoxy(polyethylene glycol)2000 [DPPE-PEG2000, reference compound]
- CMC [1]: 70 µM
- K (estimated partition coefficient) [2]: 14300 M⁻¹

Substance: TWEEN ® 20
- CMC [1]: 80 µM
- K (estimated partition coefficient) [2]: 12500 M⁻¹

Substance: TWEEN ® 80
- K (estimated partition coefficient) [2]: 10000 M⁻¹
- CMC [3]: 100 µM
